This note sets out measurements from PubChem BioAssay AID330 (DTP/NCI, 2004).

The structures appear in SMILES notation. Values joined by “and” are separate entries in the source; they are usually repeats but may differ in a detail not shown here. Equal values may be shown once. Inconclusive results and toxic doses are left out.

For this experiment, the system named is P388 leukemia ip, CD2F1 mice, survival T/C. The experiment is described as follows: NCI In Vivo Anticancer Drug Screen. Data for tumor model P388 Leukemia (intraperitoneal) in CD2F1 (CDF1) mice. The note with it: endpoint: median survival time, higher = longer survival. The gist of the method:
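Mice carrying the transplanted tumor received test compound or vehicle. Survival was recorded in each group, and the value is the treated-group measurement divided by that of the vehicle-treated control group.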

Setting [1] is: dose: 50.0 mg/kg/injection, schedule: Q01DX005 (ip), vehicle: Klucel (hydroxypropylcellulose) (HPC).
[2] abbreviates: dose: 100.0 mg/kg/injection, schedule: Q01DX005 (ip), vehicle: Klucel (hydroxypropylcellulose) (HPC).
Where [3] appears, read: dose: 200.0 mg/kg/injection, schedule: Q01DX005 (ip), vehicle: Klucel (hydroxypropylcellulose) (HPC).
[4] abbreviates: dose: 50.0 mg/kg/injection, schedule: Q01DX009 (ip), vehicle: Klucel (hydroxypropylcellulose) (HPC).
The mark [5] stands for this setting: dose: 100.0 mg/kg/injection, schedule: Q01DX009 (ip), vehicle: Klucel (hydroxypropylcellulose) (HPC).
Setting [6] is: dose: 200.0 mg/kg/injection, schedule: Q01DX009 (ip), vehicle: Klucel (hydroxypropylcellulose) (HPC).
Where [7] appears, read: dose: 100.0 mg/kg/injection, schedule: Q01DX009 (ip), vehicle: saline.
The mark [8] stands for this setting: dose: 200.0 mg/kg/injection, schedule: Q01DX009 (ip), vehicle: saline.
The mark [9] stands for this setting: dose: 400.0 mg/kg/injection, schedule: Q01DX009 (ip), vehicle: saline.
The mark [10] stands for this setting: dose: 200.0 mg/kg/injection, schedule: Q04DX003 (ip), vehicle: saline with Tween-80.
Where [11] appears, read: dose: 50.0 mg/kg/injection, schedule: Q01DX009 (ip), vehicle: saline with Tween-80.
[12] abbreviates: dose: 100.0 mg/kg/injection, schedule: Q01DX009 (ip), vehicle: saline with Tween-80.

With `[Se]=P(c1ccccc1)(N1CCCCC1)N1CCCCC1`, the T/C by setting is: (dose: 12.5 mg/kg/injection, schedule: Q01DX001 (ip), vehicle: Klucel (hydroxypropylcellulose) (HPC)) 106 % of control; (dose: 25.0 mg/kg/injection, schedule: Q01DX001 (ip), vehicle: Klucel (hydroxypropylcellulose) (HPC)) 101 % of control; (dose: 50.0 mg/kg/injection, schedule: Q01DX001 (ip), vehicle: Klucel (hydroxypropylcellulose) (HPC)) 93 % of control.
Regarding `Cc1cccc(C)c1OCc1nnc(SCC(=O)O)n1-c1c(C)cccc1C`, the T/C is, setting by setting: under setting [1], 102 % of control; under setting [2], 99 % of control; under setting [3], 93 % of control.
With `CCN(CC)C(=O)c1nc(-c2cccc3ccccc23)no1`, the T/C is, setting by setting: under setting [4], 100 % of control; under setting [5], 97 % of control; under setting [6], 98 % of control.
In the case of `CC(C)[C@](O)(C(=O)OCC1=CCN2CC[C@@H](O)[C@@H]12)[C@H](C)O`, the T/C reads like this: (dose: 25.0 mg/kg/injection, schedule: Q01DX009 (ip), vehicle: water) 105 % of control; (dose: 50.0 mg/kg/injection, schedule: Q01DX009 (ip), vehicle: water) 100 % of control and 104 % of control; (dose: 100.0 mg/kg/injection, schedule: Q01DX009 (ip), vehicle: distilled water + Tween-80) 103 % of control; under setting [7], 97 % of control; (dose: 100.0 mg/kg/injection, schedule: Q01DX009 (ip), vehicle: water) 105 % of control and 107 % of control; (dose: 200.0 mg/kg/injection, schedule: Q01DX009 (ip), vehicle: distilled water + Tween-80) 112 % of control. The T/C was 114 % of control under setting [8]; 107 % of control and 113 % of control (dose: 200.0 mg/kg/injection, schedule: Q01DX009 (ip), vehicle: water); 113 % of control (dose: 400.0 mg/kg/injection, schedule: Q01DX009 (ip), vehicle: distilled water + Tween-80); 112 % of control under setting [9]; 103 % of control (dose: 800.0 mg/kg/injection, schedule: Q01DX009 (ip), vehicle: distilled water + Tween-80).
Regarding `CN1CCC(c2ccccc2)C(O)C1` (stereo not given), the T/C is 106 % of control (dose: 60.0 mg/kg/injection, schedule: Q01DX005 (ip), vehicle: saline with Tween-80); 105 % of control (dose: 120.0 mg/kg/injection, schedule: Q01DX005 (ip), vehicle: saline with Tween-80); 103 % of control (dose: 240.0 mg/kg/injection, schedule: Q01DX005 (ip), vehicle: saline with Tween-80).
Regarding `CC1(C)N=C(N)N=C(N)N1c1ccc(CNC(=O)Nc2ccc(S(=O)(=O)F)cc2)c(Cl)c1`, the T/C reads like this: (dose: 132.0 mg/kg/injection, schedule: Q04DX003 (ip), vehicle: saline with Tween-80) 154 % of control; under setting [10], 154 % of control.
As for `NC(=O)Nc1n[nH]c(-c2ccccc2)n1`, the T/C is, setting by setting: (dose: 100.0 mg/kg/injection, schedule: Q04DX003 (ip), vehicle: saline with Tween-80) 90 % of control; under setting [10], 90 % of control; (dose: 400.0 mg/kg/injection, schedule: Q04DX003 (ip), vehicle: saline with Tween-80) 90 % of control.
Turning to `CCN(CC)CCOC(C)(C#CC(C)(O)CC)CC` (stereo not given), the T/C by setting is: (dose: 50.0 mg/kg/injection, schedule: Q01DX005 (ip), vehicle: saline with Tween-80) 100 % of control; (dose: 100.0 mg/kg/injection, schedule: Q01DX005 (ip), vehicle: saline with Tween-80) 106 % of control.
For `CCN1c2ccccc2S(=O)(=O)n2c(COc3ccccc3)nnc21`, the T/C runs as follows: (dose: 25.0 mg/kg/injection, schedule: Q01DX001 (ip), vehicle: saline with Tween-80) 95 % of control; (dose: 50.0 mg/kg/injection, schedule: Q01DX001 (ip), vehicle: saline with Tween-80) 95 % of control; (dose: 100.0 mg/kg/injection, schedule: Q01DX001 (ip), vehicle: saline with Tween-80) 87 % of control.
For the molecule `Cc1cc([N+](=O)[O-])ccc1NC(=O)n1nnc2cc(Cl)ccc21`, the T/C is 98 % of control under setting [4], 98 % of control under setting [5] and 107 % of control under setting [6].
As for `CC(C)c1ccc(C2NC(C(=O)O)CS2)cc1` (stereo not given), the T/C reads like this: (dose: 50.0 mg/kg/injection, schedule: Q01DX009 (ip), vehicle: suspension in saline) 93 % of control; (dose: 100.0 mg/kg/injection, schedule: Q01DX009 (ip), vehicle: suspension in saline) 90 % of control.
For the molecule `O=C(N/N=C/c1ccccc1O)C(=O)NC1CC1`, the T/C reads like this: under setting [11], 92 % of control; under setting [12], 91 % of control; (dose: 200.0 mg/kg/injection, schedule: Q01DX009 (ip), vehicle: saline with Tween-80) 91 % of control.
On to `CCNCCNc1ccc(NCCNCC)c2c1C(=O)c1ccccc1C2=O`, for which the T/C is, setting by setting: (dose: 4.0 mg/kg/injection, schedule: Q01DX009 (ip), vehicle: acid diluted with saline) 157 % of control; (dose: 8.0 mg/kg/injection, schedule: Q01DX009 (ip), vehicle: acid diluted with saline) 174 % of control; (dose: 12.5 mg/kg/injection, schedule: Q01DX009 (ip), vehicle: other) 168 % of control; (dose: 16.0 mg/kg/injection, schedule: Q01DX009 (ip), vehicle: acid diluted with saline) 166 % of control.
With `COC(=O)c1ccc(SCCCN2CCOCC2)cc1`, the T/C is 91 % of control under setting [7]; 90 % of control (dose: 176.0 mg/kg/injection, schedule: Q04DX003 (ip), vehicle: saline); 91 % of control under setting [8]; 95 % of control (dose: 264.0 mg/kg/injection, schedule: Q04DX003 (ip), vehicle: saline); 100 % of control under setting [9]; 104 % of control (dose: 400.0 mg/kg/injection, schedule: Q04DX003 (ip), vehicle: saline).
For the molecule `C/C=C(\C)C(=O)OC1C2C(C)=CC(O)C(O)C2(C)C2C3(O)OCC24C1OC(=O)C(O)C4C(C)C3O` (stereo not given), the T/C by setting is: (dose: 2.5 mg/kg/injection, schedule: Q01DX005 (ip), vehicle: Klucel (hydroxypropylcellulose) (HPC)) 108 % of control; (dose: 5.0 mg/kg/injection, schedule: Q01DX005 (ip), vehicle: Klucel (hydroxypropylcellulose) (HPC)) 102 % of control; (dose: 10.0 mg/kg/injection, schedule: Q01DX005 (ip), vehicle: Klucel (hydroxypropylcellulose) (HPC)) 100 % of control; (dose: 20.0 mg/kg/injection, schedule: Q01DX005 (ip), vehicle: Klucel (hydroxypropylcellulose) (HPC)) 105 % of control.
In the case of `O=C1CC2(C(=O)O1)C1C(=O)OC(=O)C1C1C=CC=NN12` (stereo not given), the T/C reads like this: (dose: 25.0 mg/kg/injection, schedule: Q01DX009 (ip), vehicle: saline with Tween-80) 90 % of control; under setting [11], 93 % of control; under setting [12], 93 % of control.
On to `CCN(CC)c1nc(NNC(=S)NC)nc(N(CC)CC)n1`, for which the T/C was 100 % of control (dose: 100.0 mg/kg/injection, schedule: Q04DX002 (ip), vehicle: saline with Tween-80); 98 % of control (dose: 200.0 mg/kg/injection, schedule: Q04DX002 (ip), vehicle: saline with Tween-80); 100 % of control (dose: 400.0 mg/kg/injection, schedule: Q04DX002 (ip), vehicle: saline with Tween-80).
With `CN(C)CCCC1(O)c2ccccc2CCc2ccccc21`, the T/C (dose: 12.5 mg/kg/injection, schedule: Q01DX009 (ip), vehicle: saline) was 103 % of control; the T/C (dose: 25.0 mg/kg/injection, schedule: Q01DX009 (ip), vehicle: saline) is 108 % of control; the T/C (dose: 50.0 mg/kg/injection, schedule: Q01DX009 (ip), vehicle: saline) is 101 % of control and 119 % of control; the T/C under setting [7] is 94 % of control.
For `CCN(CC)CC.COC(=O)NC#N.[CH-]1CCCCC1.[CH-]1CCCCC1.[CH-]1CCCCC1.[Cl-].[Sn+4]`, the T/C (dose: 3.12 mg/kg/injection, schedule: Q01DX005 (ip), vehicle: saline with Tween-80) is 104 % of control and the T/C (dose: 6.25 mg/kg/injection, schedule: Q01DX005 (ip), vehicle: saline with Tween-80) is 98 % of control.
For the molecule `CN1CCC(CNc2ccccc2)CC1`, the T/C by setting is: (dose: 7.5 mg/kg/injection, schedule: Q01DX005 (ip), vehicle: saline) 98 % of control; (dose: 15.0 mg/kg/injection, schedule: Q01DX005 (ip), vehicle: saline) 98 % of control.
Regarding `CC1(C)OC(=O)C(=Cc2ccc[nH]2)C(=O)O1`, the T/C is 98 % of control under setting [1], 105 % of control under setting [2] and 107 % of control under setting [3].
On the same counts, the results for `O=C1CNC(=O)N1CN1CCc2ccccc2C1` are 99 % of control, 105 % of control and 99 % of control.
